Data: article PMC9241976 (Chemical Science, 2022)

Tested on: MCF-7 cells
Assay: Sulforhodamine B assay, cytostatic and cytotoxic activity
Assay type: cell-based, human
Settings: LC50 versus GI50 of the same compound

polytheonamide B [Compound 5]
difference between GI50 and LC50: 19 fold
